One substance from US20200291082A1, “PREVENTION AND TREATMENT OF GRAFT-VERSUS-HOST-DISEASE WITH DEFENSINS” (priority 2017, published 2020) can be followed below.

For data set [1], the system named is Dextran Sodium Sulphate induced colitis. Put plainly: therapeutic murine 14-day Dextran Sodium Sulphate induced colitis model (Example 5). It is filed as in vivo, C57BL/6 mice. Here is the method:
Anti-inflammatory effect of s.c. administration of hBD2 versus intraperitoneal anti TNF-α and intraperitoneal dexamethasone in a therapeutic, murine, 14-day, Dextran Sodium Sulphate induced colitis model.
70 male C57BL/6 mice housed in groups of five per cage were allocated to 7 different treatment groups. All animals had their drinking water supplemented with DSS 2% for 14 days to induce colitis resulting in significant inflammation and injury of the colonic tissue. The animals were treated with hBD2, 0.1 mg/kg s.c. BID; 0.1 mg/kg s.c. OD or 1.2 mg/kg i.v. […]
A disease activity index (DAI) scoring system was applied for clinical assessment (FIG. 7). The animals were sacrificed on day 14 and colon removed for histological assessment employing a histological scoring system (FIG. 8)

Data set [2] relates to CD4+CD25+ Tcell transfer induced colitis. The data set is described as follows: therapeutic murine 14 weeks CD4+CD25+ Tcell transfer induced colitis model (Example 6). The settings on record: hBD2 1 mg/kg s.c. OD, Dexamethasone 0.3 mg/kg i.p. OD, Enbrel 100 μg/mouse s.c. twice weekly. The data set is classed as in vivo, SCID mice. An excerpt: Efficacy of s.c. administration of hBD2 versus s.c. anti TNF-α (Enbrel) and intraperitoneal dexamethasone in a therapeutic, murine, 14 weeks, CD4+CD25+ Tcell transfer induced colitis model.
70 female BALB/c mice housed in groups of five per cage were allocated to 7 different treatment groups. Colitis was induced in SCID mice by transplantation of CD4+CD25+ Tcells from BALB/c mice. Lymphocytes isolated from spleen and lymph nodes from BALB/c mice were subjected to negative selection of CD4+ Tcells. Afterwards, CD4+CD25+ cells were positively isolated by binding to the beads from the CD4+ Tcell suspensions and the CD4+CD25− were collected from the supernatant. The animals were treated with hBD2, 0.1 mg/kg s.c. OD; 1 mg/kg s.c. OD or 3 mg/kg s.c. OD or with mouse anti TNFα 100 μg/mouse s.c. twice weekly or with dexamethasone 0.3 mg/kg intraperitoneally OD or PBS s.c. as vehicle from day 7 and 86 consecutive days.
Clinical assessment was based on body weight loss, stool consistency and presence of blood per rectum. The animals were sacrificed on day 95 and colon removed for assessment of weight and myeloperoxidase activity.

Data set [3] relates to gut microbiota in high fat diet murine model. Put plainly: prophylactic treatment with defensins in murine high fat diet model, gut microbiota (Example 7). The data set is classed as in vivo, mice. An excerpt:
Protection and preservation of gut microbiota by prophylactic treatment with defensins. Mice: Mice were housed in trios, 4 cages per group. Feed intake was registered daily just before lights were turned off at 6 pm. Individual mice were subjected to experimental procedures in altered order both group and cage wise. Mice were kept at room temperature under a 12-hour light/dark cycle at SPF standard conditions. Diets: For dosing, the average weight was estimated to be 25 grams per mouse. Mice eat approximately 3 grams of feed per mouse per day. Treatment regime: Mice were fed either a high fat diet (HFD) or a low fat (LF) control diet. The HFD contained 4 subgroups; 1 hBD2, 1 HD5, 1 hBD2/HD5 and 1 standard HFD without supplementation of defensins (FIG. 3). Defensin concentration was 1,2 mg hBD2 per kg mouse per day. HD5 was given in equimolar concentration to hBD2. […] Microbial analyses were carried out to study the microbiota of the intestine. Longitudinal 16S characterization was conducted on 4 paired samples from 60 mice, 240 samples in total. Each mouse was sampled prior to diet change, 1 week post diet change, 4 weeks post diet change and at termination, thus ensuring a thorough characterization of the faecal microbiota as a result of defensin treatment.

For data set [4], the system named is bacteria at the surface of the intestinal mucosa. Put plainly: anti microbial effect of orally administered defensins, mucin immunostaining and localization of bacteria by FISH (Example 16). The settings on record: compared with mice on low fat or western diet. It is filed as in vivo. Here is the method: Anti microbial effect of orally administered defensins (HD5 and hBD-2).
Mucus immunostaining was paired with fluorescent in situ hybridization (FISH), as previously described in order to analyze bacteria localization at the surface of the intestinal mucosa. Briefly, colonic tissues (proximal colon, 2nd cm from the cecum) without fecal material were placed in methanol-Carnoy's fixative solution (60% methanol, 30% chloroform, 10% glacial acetic acid) for a minimum of 3 hours at room temperature. Tissues were then washed in methanol 2×30 min, ethanol 2×15 min, ethanol/xylene (1:1), 15 min and xylene 2×15 min, followed by embedding in Paraffin with a vertical orientation. Five pm sections were performed and dewax by preheating at 60° C. for 10 min, followed by xylene 60° C. for 10 min, xylene for 10 min and 99.5% ethanol for 10 minutes. Hybridization step was performed at 50° C. overnight with EUB338 probe (5′-GCTGCCTCCCGTAGGAGT-3′, with a 5′ labeling using Alexa 647) diluted to a final concentration of 10 μg/mL in hybridization buffer (20 mM Tris-HCl, pH 7.4, 0.9 M NaCl, 0.1% SDS, 20% formamide). After washing 10 min in wash buffer (20 mM Tris-HCl, pH 7.4, 0.9 M NaCl) and 3×10 min in PBS, PAP pen (Sigma-Aldrich) was used to mark around the section and block solution (5% fetal bovine serum in PBS) was added for 30 min at 4° C. […]

Where [5] appears, read: colon, prophylactic treatment with hBD2.

Entries after “also recorded” stand apart in the source; their conditions may differ. No end group written: not given here.

Turning to “human beta defensin 2 (GIGDPVTCLKSGAICHPVFCPRRYKQIGTCGLPGTKCCKKP; not fully specified (bridges); ends and bridges not checked; listed as Homo sapiens) [hBD2]”, the “histological score, compared with references” value in data set [1] (FIG. 16, hBD2 0.1 mg/kg versus dexamethasone 1 mg/kg and mouse anti TNF-α 300 μg/mouse) is “on par with dexamethasone 1 mg/kg and superior to mouse anti TNF-α 300 μg/mouse”. The “disease activity index (DAI)” value in data set [1] (hBD2 0.1 mg s.c. OD, Dexamethasone 1 mg/kg i.p. OD, day 8 to day 14) is “statistically significant effect on DAI”. For the same substance, the histological score result in data set [1] (hBD2 0.1 mg/kg s.c. OD, Dexamethasone 1 mg/kg i.p. OD, colon day 14) is given as “statistically significant effect on histological score; also recorded: statistical significant effect”. For the same substance, the myeloperoxidase activity result in data set [2] (colon, day 95) is “statistically significant and similar effect; also recorded: on par with 100 μg/mouse anti TNF-α s.c. twice weekly (Enbrel) and 0.3 mg/kg dexamethasone intraperitoneally OD”. For the same substance, in data set [2], the “clinical score (body weight loss, stool consistency, presence of blood per rectum)” value is “statistically significant and similar effect on clinical score; also recorded: on par with 100 μg/mouse anti TNF-α s.c. twice weekly (Enbrel) and 0.3 mg/kg dexamethasone intraperitoneally OD”. In data set [2] (day 95), the colon weight result is “statistically significant and similar effect on colon weight; also recorded: on par with 100 μg/mouse anti TNF-α s.c. twice weekly (Enbrel) and 0.3 mg/kg dexamethasone intraperitoneally OD”. In data set [3] (HFD plus hBD2 (1,2 mg per kg per day) versus HFD reference group, 10 week study period), the weight gain result is “gained significantly less weight”. In data set [3] (setting [5]), the “abundance of Barnesiella” value is recorded as “statistically significant increase in abundance of Barnesiella” and the “abundance of Lactobacillaceae” value is “trend towards lower abundance”. In data set [3] (liver, HFD mice with prophylactic oral hBD-2 1.2 mg/kg daily, 1.2 mg/kg), the “steatosis (intra hepatocytic fat accumulation)” value is on record as “minimal intra hepatocyte fat accumulation; also recorded: minimal steatosis”. The “microbial presence and abundance (unifrac analysis)” value in data set [3] (prophylactic oral defensins in high fat diet) was “affected primarily the microbial presence”. For the same substance, the “lysis zone, distance between intestinal wall and bacterial population” value in data set [4] is “profound effect on the distance”.
